Here are results for 25 compounds from patent US20230312542A1, “HYDROXYPYRROLIDINE DERIVATIVE AND MEDICINAL APPLICATION THEREOF” (MITSUBISHI TANABE PHARMA CORPORATION, priority 2020, published 2023).

The test deals with VHL (co-expressed with Elongin B and Elongin C) (Homo sapiens (Human), UniProt P40337). The test can be described thus: Measurement of intermolecular interactions using surface plasmon resonance (Biacore T200), Kd value for VHL. The format is binding. The note with it: SPR, immobilized VHL, 25° C.; read-out: Kd. The source says: As the device, Biacore T200 (manufactured by GE Healthcare) was used. VHL was obtained by co-expressing Elongin B and Elongin C with a Twin-Strep-tag added to the N-terminus. As the sensor chip, Sensor chip CM5 (manufactured by GE Healthcare) was used. First, Strep-Tactin XT (manufactured by GE Healthcare) was immobilized on the sensor chip by amine coupling. Thereafter, VHL was immobilized using the affinity of Strep-Tactin XT and Twin-Strep-tag, and VHL was further immobilized on the sensor chip by amine coupling.
Chain of VHL (co-expressed with Elongin B and Elongin C) (P40337 whole entry, looked up): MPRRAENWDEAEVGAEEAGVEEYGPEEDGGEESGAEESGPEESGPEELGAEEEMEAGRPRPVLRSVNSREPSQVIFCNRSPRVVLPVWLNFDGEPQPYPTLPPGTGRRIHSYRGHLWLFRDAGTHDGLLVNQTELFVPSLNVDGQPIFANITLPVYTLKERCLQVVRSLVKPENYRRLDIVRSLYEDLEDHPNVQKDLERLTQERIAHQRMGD
Chain of VHL (co-expressed with Elongin B and Elongin C) (Q15370 whole entry partner, looked up): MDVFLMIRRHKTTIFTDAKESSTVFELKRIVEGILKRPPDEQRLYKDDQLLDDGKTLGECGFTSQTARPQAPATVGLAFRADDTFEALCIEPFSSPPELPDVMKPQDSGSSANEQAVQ
Chain of VHL (co-expressed with Elongin B and Elongin C) (Q15369 whole entry partner, looked up): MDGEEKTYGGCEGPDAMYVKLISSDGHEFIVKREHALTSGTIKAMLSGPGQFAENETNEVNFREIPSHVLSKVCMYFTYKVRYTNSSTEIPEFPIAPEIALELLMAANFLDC
As the running buffer, a mixed solution of 20 mM HEPES pH 7.5, 150 mM NaCl, 1 mM TCEP, 0.005% Tween 20, and 2% DMSO was used. […] The Contact time and the Dissociation time were determined according to the properties of the compounds. For many compounds, 60 seconds and 120 seconds were respectively used.
On to `CC(=O)N[C@H](C(=O)N1C[C@H](O)C[C@H]1c1nc(C(=O)N(C)Cc2ccccc2Cl)c[nH]1)C(C)(C)C` [Example 14, 2-[(2S,4R)-1-[(2S)-2-acetamido-3,3-dimethylbutanoyl]-4-hydroxypyrrolidin-2-yl]-N-[(2-chlorophenyl)methyl]-N-methyl-1H-imidazole-4-carboxamide], for which the Kd (as a rule, the equilibrium constant for the complex coming apart) lay within 1 to 10 µM.

Take `CC(=O)N[C@H](C(=O)N1C[C@H](O)C[C@H]1c1nc(C(=O)N(C)Cc2cccc(-c3scnc3C)c2)c[nH]1)C(C)(C)C` [Example 29, 2-[(2S,4R)-1-[(2S)-2-acetamido-3,3-dimethylbutanoyl]-4-hydroxypyrrolidin-2-yl]-N-methyl-N-[[3-(4-methyl-1,3-thiazol-5-yl)phenyl]methyl]-1H-imidazole-4-carboxamide]: the Kd was in the range of 1 to 10 µM.

In the case of `COc1ccc(CN(C)C(=O)c2c[nH]c([C@@H]3C[C@@H](O)CN3C(=O)[C@@H](NC(C)=O)C(C)(C)C)n2)cc1` [Example 25, 2-[(2S,4R)-1-[(2S)-2-acetamido-3,3-dimethylbutanoyl]-4-hydroxypyrrolidin-2-yl]-N-[(4-methoxyphenyl)methyl]-N-methyl-1H-imidazole-4-carboxamide], the Kd fell in the range of 1 to 10 µM.

For the compound `CC(=O)N[C@H](C(=O)N1C[C@H](O)C[C@H]1c1nc(C(=O)N(C)Cc2ccc(C(F)(F)F)cc2)c[nH]1)C(C)(C)C` [Example 22, 2-[(2S,4R)-1-[(2S)-2-acetamido-3,3-dimethylbutanoyl]-4-hydroxypyrrolidin-2-yl]-N-methyl-N-[[4-(trifluoromethyl)phenyl]methyl]-1H-imidazole-4-carboxamide], the Kd lay in the range of 1 to 10 µM.

As for `CC(=O)N[C@H](C(=O)N1C[C@H](O)C[C@H]1c1ncc(-c2ccccc2C(F)(F)F)[nH]1)C(C)(C)C` [Example 84, N-[(2S)-1-[(2S,4R)-4-hydroxy-2-[5-[2-(trifluoromethyl)phenyl]-1H-imidazol-2-yl]pyrrolidin-1-yl]-3,3-dimethyl-1-oxobutan-2-yl]acetamide], the dissociation constant (Kd) was 1 to 10 µM.

As to `CC(=O)N[C@H](C(=O)N1C[C@H](O)C[C@H]1c1nc(C(=O)N(C)Cc2cccc(C(F)(F)F)c2)c[nH]1)C(C)(C)C` [Example 21, 2-[(2S,4R)-1-[(2S)-2-acetamido-3,3-dimethylbutanoyl]-4-hydroxypyrrolidin-2-yl]-N-methyl-N-[[3-(trifluoromethyl)phenyl]methyl]-1H-imidazole-4-carboxamide], the Kd was in the range of 1 to 10 µM.

Regarding `CNC(=O)c1ccccc1-c1cnc([C@@H]2C[C@@H](O)CN2C(=O)C(c2cc(OC)no2)C(C)C)[nH]1` (stereo partly drawn) [Example 64, 2-[2-[(2S,4R)-4-hydroxy-1-[2-(3-methoxy-1,2-oxazol-5-yl)-3-methylbutanoyl]pyrrolidin-2-yl]-1H-imidazol-5-yl]-N-methylbenzamide], the Kd fell in the range of 1 to 10 µM.

With `COc1cc(C(C(=O)N2C[C@H](O)C[C@H]2c2nccn2Cc2ccccc2OCc2ccccc2)C(C)C)on1` (stereo partly drawn) [Example 66, 1-[(2S,4R)-4-hydroxy-2-[1-[(2-phenylmethoxyphenyl)methyl]imidazol-2-yl]pyrrolidin-1-yl]-2-(3-methoxy-1,2-oxazol-5-yl)-3-methylbutan-1-one], the Kd was 10 to 50 µM.

Turning to `COc1cc(C(C(=O)N2C[C@H](O)C[C@H]2c2ncc(-c3cccc(-c4scnc4C)c3)[nH]2)C(C)C)on1` (stereo partly drawn) [Example 44, 1-[(2S,4R)-4-hydroxy-2-[5-[3-(4-methyl-1,3-thiazol-5-yl)phenyl]-1H-imidazol-2-yl]pyrrolidin-1-yl]-2-(3-methoxy-1,2-oxazol-5-yl)-3-methylbutan-1-one], the dissociation constant (Kd) was under 1 µM.

Turning to `COc1cc(C(C(=O)N2C[C@H](O)C[C@H]2c2nc(C(=O)N(C)Cc3ccc(-c4ccnc(C)c4)cc3)c[nH]2)C(C)C)on1` (stereo partly drawn) [Example 153, 2-[(2S,4R)-4-hydroxy-1-[2-(3-methoxyisoxazol-5-yl)-3-methylbutanoyl]pyrrolidin-2-yl]-N-methyl-N-[[4-(2-methyl-4-pyridyl)phenyl]methyl]-1H-imidazole-4-carboxamide], the Kd is under 1 µM.

`COc1cccc(Cc2cnc([C@@H]3C[C@@H](O)CN3C(=O)C(c3cc(OC)no3)C(C)C)[nH]2)c1` (stereo partly drawn) [Example 63, 1-[(2S,4R)-4-hydroxy-2-[5-[(3-methoxyphenyl)methyl]-1H-imidazol-2-yl]pyrrolidin-1-yl]-2-(3-methoxy-1,2-oxazol-5-yl)-3-methylbutan-1-one]: the Kd lay in the range of 1 to 10 µM.

`CC(=O)N[C@H](C(=O)N1C[C@H](O)C[C@H]1c1ncc(-c2ccc(-c3scnc3C)cc2)[nH]1)C(C)(C)C` [Example 89, N-[(2S)-1-[(2S,4R)-4-hydroxy-2-[5-[4-(4-methyl-1,3-thiazol-5-yl)phenyl]-1H-imidazol-2-yl]pyrrolidin-1-yl]-3,3-dimethyl-1-oxobutan-2-yl]acetamide]: the Kd lay within 1 to 10 µM.

For the compound `CC(=O)N[C@H](C(=O)N1C[C@H](O)C[C@H]1c1nc(C(=O)N(C)Cc2ccc3ccccc3c2)c[nH]1)C(C)(C)C` [Example 30, 2-[(2S,4R)-1-[(2S)-2-acetamido-3,3-dimethylbutanoyl]-4-hydroxypyrrolidin-2-yl]-N-methyl-N-(naphthalen-2-ylmethyl)-1H-imidazole-4-carboxamide], the Kd is 1 to 10 µM.

As to `CC(=O)N[C@H](C(=O)N1C[C@H](O)C[C@H]1c1nc(C(=O)N(C)Cc2cccnc2)c[nH]1)C(C)(C)C` [Example 53, 2-[(2S,4R)-1-[(2S)-2-acetamido-3,3-dimethylbutanoyl]-4-hydroxypyrrolidin-2-yl]-N-methyl-N-(pyridin-3-ylmethyl)-1H-imidazole-4-carboxamide], the Kd fell in the range of 1 to 10 µM.

Turning to `COc1cc(C(C(=O)N2C[C@H](O)C[C@H]2c2nc(C)cs2)C(C)C)on1` (stereo partly drawn) [Example 147, 1-[(2S,4R)-4-hydroxy-2-(4-methylthiazol-2-yl)pyrrolidin-1-yl]-2-(3-methoxyisoxazol-5-yl)-3-methylbutan-1-one], the Kd is 10 to 50 µM.

Regarding `COc1ccc(-c2[nH]c([C@@H]3C[C@@H](O)CN3C(=O)C(c3cc(OC)no3)C(C)C)nc2C(F)(F)F)cc1` (stereo partly drawn) [Example 74, 1-[(2S,4R)-4-hydroxy-2-[5-(4-methoxyphenyl)-4-(trifluoromethyl)-1H-imidazol-2-yl]pyrrolidin-1-yl]-2-(3-methoxy-1,2-oxazol-5-yl)-3-methylbutan-1-one], the Kd lay in the range of 1 to 10 µM.

Take `CCCc1nnc(C(C(=O)N2C[C@H](O)C[C@H]2c2ncc[nH]2)C(C)C)o1` (stereo partly drawn) [Example 162, 1-[(2S,4R)-4-hydroxy-2-(1H-imidazol-2-yl)pyrrolidin-1-yl]-3-methyl-2-(5-propyl-1,3,4-oxadiazol-2-yl) butan-1-one]: the Kd is 10 to 50 µM.

For `CC(=O)N[C@H](C(=O)N1C[C@H](O)C[C@H]1c1nc(C(=O)N(C)Cc2ccccc2C(F)(F)F)c[nH]1)C(C)(C)C` [Example 20, 2-[(2S,4R)-1-[(2S)-2-acetamido-3,3-dimethylbutanoyl]-4-hydroxypyrrolidin-2-yl]-N-methyl-N-[[2-(trifluoromethyl)phenyl]methyl]-1H-imidazole-4-carboxamide], the Kd lay within 1 to 10 µM.

For the compound `COc1cc(C(C(=O)N2C[C@H](O)C[C@H]2c2nc(C(=O)N3CCC(Oc4ccccc4)CC3)c[nH]2)C(C)C)on1` (stereo partly drawn) [Example 1, 1-[(2S,4R)-4-hydroxy-2-[4-(4-phenoxypiperidine-1-carbonyl)-1H-imidazol-2-yl]pyrrolidin-1-yl]-2-(3-methoxy-1,2-oxazol-5-yl)-3-methylbutan-1-one], the Kd was in the range of 1 to 10 µM.

`COc1cc(C(C(=O)N2C[C@H](O)C[C@H]2c2nccn2Cc2cncc(-c3ccc(F)cc3)c2)C(C)C)on1` (stereo partly drawn) [Example 113, 1-[(2S,4R)-2-[1-[[5-(4-fluorophenyl)-3-pyridyl]methyl]imidazol-2-yl]-4-hydroxypyrrolidin-1-yl]-2-(3-methoxyisoxazol-5-yl)-3-methylbutan-1-one]: the Kd lay in the range of 10 to 50 µM.

Turning to `COc1cc(C(C(=O)N2C[C@H](O)C[C@H]2c2nccn2Cc2ccccc2Oc2ccccc2)C(C)C)on1` (stereo partly drawn) [Example 69, 1-[(2S,4R)-4-hydroxy-2-[1-[(2-phenoxyphenyl)methyl]imidazol-2-yl]pyrrolidin-1-yl]-2-(3-methoxy-1,2-oxazol-5-yl)-3-methylbutan-1-one], the Kd was 10 to 50 µM.

Take `CCCc1nc(C(C(=O)N2C[C@H](O)C[C@H]2c2ncc[nH]2)C(C)C)no1` (stereo partly drawn) [Example 161, 1-[(2S,4R)-4-hydroxy-2-(1H-imidazol-2-yl)pyrrolidin-1-yl]-3-methyl-2-(5-propyl-1,2,4-oxadiazol-3-yl)butan-1-one]: the Kd lay within 10 to 50 µM.

As to `COc1cc(C(C(=O)N2C[C@H](O)C[C@H]2c2nc(C(=O)N3CCC(c4ccncc4)CC3)c[nH]2)C(C)C)on1` (stereo partly drawn) [Example 139, 1-[(2S,4R)-4-hydroxy-2-[4-[4-(4-pyridyl)piperidine-1-carbonyl]-1H-imidazol-2-yl]pyrrolidin-1-yl]-2-(3-methoxyisoxazol-5-yl)-3-methylbutan-1-one], the Kd was 1 to 10 µM.

Consider `COc1cc(C(C(=O)N2C[C@H](O)C[C@H]2c2nc(C(=O)N3CCC(OCc4ccccc4)CC3)c[nH]2)C(C)C)on1` (stereo partly drawn) [Example 141, 1-[(2S,4R)-2-[4-(4-benzyloxypiperidine-1-carbonyl)-1H-imidazol-2-yl]-4-hydroxypyrrolidin-1-yl]-2-(3-methoxyisoxazol-5-yl)-3-methylbutan-1-one], for which the Kd lay within 1 to 10 µM.

In the case of `CC(=O)N[C@H](C(=O)N1C[C@H](O)C[C@H]1c1nc(C(=O)N(C)Cc2ccccn2)c[nH]1)C(C)(C)C` [Example 48, 2-[(2S,4R)-1-[(2S)-2-acetamido-3,3-dimethylbutanoyl]-4-hydroxypyrrolidin-2-yl]-N-methyl-N-(pyridin-2-ylmethyl)-1H-imidazole-4-carboxamide], the equilibrium dissociation constant (Kd) lay in the range of 1 to 10 µM.
